{"source": "patent US5196410A", "about": "“Transdermal flux enhancing compositions” (priority 1991, dated 1993)", "key": {"[1]": {"test": "Saturation concentration of drug in vehicle"}, "[2]": {"test": "Infrared spectra of fatty acid treated porcine stratum corneum", "conditions": "C-H antisymmetric stretching, stratum corneum treated with […] fatty acid in ethanol, 30% (w/w) water", "protocol": "(§1) Stratum corneum sheets were prepared from porcine skin by trypsin treatment. Thus, full thickness porcine skin samples were dermatomed to 350 μm thickness and spread, stratum corneum side up, on filter paper saturated with 0.5% crude trypsin in phosphate buffered saline at pH 7.4 (Sorensen's buffer). After several hours at 37° C. the stratum corneum was peeled away, washed in soybean trypsin inhibitor, water and air dried. Samples were stored desiccated at room temperature until used. Prior to use, dry skin samples of known weight were incubated for two hours in an 0.15M solution of the appropriate fatty acid in ethanol, the samples were then washed for ten seconds in ethanol, spread on wire mesh, dried over a desiccant and the dry sample reweighed. The stratum corneum samples were then held for several days in a chamber at 22° C., 95% relative humidity, during which the stratum corneum samples equilibrated to a water content of 30% (w/w).\nInfrared spectra were obtained with a Fourier Transform Infrared Spectrometer^4 (FTIR) equipped with a liquid nitrogen cooled mercury-cadmium telluride detector. In order to prevent water loss, hydrated samples were sealed between zinc sulfide windows while maintained at 22° C., 95% relative humidity. Sealed samples were placed in the spectrometer where an average of 127 scans were obtained in about six minutes for each of the fatty acid treatments. The digitized data were transferred to a computer (Apple IIe) for determination of frequency and bandwidth of the C--H antisymmetric stretching absorbance. Due to the digital nature of the FTIR instrument, absorbance and frequency data exist only in discrete increments. With the instrument used, the exact value of any frequency point could only be determined with a precision not greater than 2.7 cm^-1. The peak frequency was estimated with much greater precision, however, using a center of gravity algorithm for digitized data reported by Cameron et al., Applied Spectr., 36 245-250 (1982)."}, "[3]": {"test": "Differential scanning calorimetry of fatty acid treated porcine stratum corneum", "conditions": "stratum corneum treated with […] fatty acid in ethanol, 30% (w/w) water", "protocol": "as §1\nThe differential scanning calorimeter^5 was used at a scan rate of 0.75° C./minute. Duplicate samples from each of the above FTIR experiments were combined for DSC measurements. Alternately, stratum corneum samples of known weight (about 20 mg) were treated with each fatty acid in the same manner described above. Treated samples were hydrated for several days at 95% R.H., 22° C. and reweighed."}, "[4]": {"type": "in vitro ADME, porcine", "protocol": "Samples were removed periodically from the receiver side of the diffusion cell, mixed with a Z0 scintillation cocktail (Scintisol, Isolabs, Inc., Akron, OH) and counted for several minutes in a liquid scintillation counter (Model Mark III-6881, Tracor Analytical, Elk Grove Village, IL). Following an initial lag time of about 6 hours, the amount of\nsalicylic acid appearing in the receiver side was linear with time for the duration of the experiment (routinely 24 to 48 hours). […] This value, when divided by the specific acitivity of salicyclic acid in the saturated solution (approximately 300 dpm/mg) and the area of exposed skin (0.2 cm^2), yielded the flux (mg/cm^2/ hr). Samples removed from the donor side at the beginning and end of the experiment contained, within error, the same amount of salicylic acid. Thus, constant concentration of the permeant was maintained on the donor side throughout the experiment."}, "[5]": {"conditions": "cited from earlier work"}, "[6]": {"conditions": "saturated salicylic acid in ethanol with […] of the fatty acid, 32° C."}}, "note": "Where a name gives a salt, the structure may show the parent alone. Read-outs that look alike come from different tables or passages of the source."}
{"compound": "COc1cc2nc(N3CCN(C(=O)C4COc5ccccc5O4)CC3)nc(N)c2cc1OC", "note": "(stereo not shown) [doxazosin mesylate]", "values": [{"measurement": "solubility", "setting": "[1]; 30% ethanol/acetate buffer, pH 5, organic solvent or mixture", "result": 8.95, "unit": "mg/mL"}]}
{"compound": "CCCCCC/C=C/CCCCCCCCCC(=O)O", "note": "[trans-vaccenic, trans-vaccenic acid]", "values": [{"measurement": "Peak IR Frequency", "setting": "[2]", "result": 2920, "unit": "cm⁻¹"}, {"measurement": "DSC Tm (temperature of the transition maximum)", "setting": "[3]", "result": 61.0, "unit": "°C"}, {"measurement": "Flux of Salicylic Acid", "setting": "[4]; [6]", "result": 1.11, "unit": "mg/cm^2 /hr"}]}
{"compound": "CCCCCCCCCCCCCCCCCC(=O)O", "note": "[Stearic, stearic acid]", "values": [{"measurement": "Peak IR Frequency", "setting": "[2]", "result": "2918.0 ± 0.4", "unit": "cm⁻¹"}, {"measurement": "Peak IR Frequency", "setting": "[2]; listed as stearic acid", "result": "2918 to 2919", "unit": "cm⁻¹"}, {"measurement": "DSC Tm (temperature of the transition maximum)", "setting": "[3]", "result": "62.5 ± 1.0", "unit": "°C"}, {"measurement": "Flux of Salicylic Acid", "setting": "[4]; [6]", "result": 1.21, "unit": "mg/cm^2 /hr"}]}
{"compound": "CCCCCCCCCCCCN1CCCCCC1=O", "note": "[Azone, 1-dodecylazacycloheptan-2-one]", "values": [{"measurement": "ability to enhance percutaneous penetration", "setting": "[5]; Stoughton, Arch. Derm.", "result": "ability to enhance percutaneous penetration"}, {"measurement": "enhancement of dermal penetration", "setting": "[5]; flurbiprofen in propylene glycol and other solvents", "result": "enhance dermal penetration"}]}
{"compound": "O=C(O)c1ccccc1O", "note": "[Salicylic acid, salicylic acid]", "values": [{"measurement": "initial lag time", "setting": "[4]; salicylic acid in receiver, 32° C.", "result": "about 6 hours"}, {"measurement": "Flux of Salicylic Acid", "setting": "[4]; saturated salicylic acid in ethanol, no fatty acid (ethanol control), 32° C.", "result": 1.31, "unit": "mg/cm^2 /hr"}, {"measurement": "solubility", "setting": "[1]; ethanol, organic solvent or mixture", "result": 310, "unit": "mg/mL"}]}
{"compound": "CCCCCCCCCCC/C=C\\CCCCC(=O)O", "note": "[Petroselenic]", "values": [{"measurement": "Peak IR Frequency", "setting": "[2]", "result": 2919.0, "unit": "cm⁻¹"}, {"measurement": "DSC Tm (temperature of the transition maximum)", "setting": "[3]", "result": 60.5, "unit": "°C"}, {"measurement": "Flux of Salicylic Acid", "setting": "[4]", "result": 0.79, "unit": "mg/cm^2 /hr"}]}
{"compound": "CCCCCCCCCCC/C=C/CCCCC(=O)O", "note": "[Petroseladic]", "values": [{"measurement": "Peak IR Frequency", "setting": "[2]", "result": 2919.0, "unit": "cm⁻¹"}, {"measurement": "DSC Tm (temperature of the transition maximum)", "setting": "[3]", "result": 62.0, "unit": "°C"}, {"measurement": "Flux of Salicylic Acid", "setting": "[4]", "result": 0.97, "unit": "mg/cm^2 /hr"}]}
